Assay results: US9018244B2, “Benzopyran compounds, compositions and uses thereof” (Olema Pharmaceuticals, Inc., priority 2011, dated 2015)
“Also recorded” adds a separate entry of the source.

Experiments:
[1] = test system: E2-stimulated AP activity in ECC-1 cells; experiment: Inhibition of E2-stimulated AP activity in ECC-1 cells (antagonist mode); assay type: cell-based, human; conditions: in the presence of 500 pM E2
Text: FIG. 2. Alkaline phosphatase (AP) activity in ECC-1 cells correlates with the uterine wet weight of ovariectomized rats, as reported previously in Scafonas, et al. (*; Scafonas et al. “Agonist-like SERM effects on ER alpha-mediated repression of MMPI promoter activity predict in vivo effects on bone and uterus. J Steroid Biochem Mol. Biol. 2008 110(3-5):197-206) and Labrie, et al. (†; Labrie et al. “The combination of a novel selective estrogen receptor modulator with an estrogen protects the mammary gland and uterus in a rodent model: the future of postmenopausal women's health?” Endocrinology. 2003 144(11):4700-6). ECC-1 cells were treated with 500 pM 17β-estradiol (E2) or 1-5 nM anti-estrogens in hormone-depleted medium for 3 days. Note that the racemic mixture of acolbifene, EM-343, was used in the in vitro AP assay. AP activity was measured by incubating a chromogenic AP substrate, p-nitrophenyl phosphate, at 40° C. for 40 minutes followed by measuring the absorbance at 405 nm. Results were from a single representative experiment and reported as the mean percent induction relative to E2 from triplicate treatments, with error bars representing SEM.
FIG. 6. […] A) Comparison of inhibition of E2-stimulated AP activity of various benzopyran compounds (right) compared to published reference compounds (left). ECC-1 cells were treated with 100 nM anti-estrogens in the presence of 500 pM E2 and AP activity was measured as described in FIG. 2. Note that OP-1038 was statistically different from EM-343 and Gauthier compound Ia (p<0.0001 (exact p values stated in graph), calculated using Student's t-test). Results were from a single representative experiment and reported as the mean percent induction relative to E2 from triplicate treatments, with error bars representing SEM. […] IC50's were calculated using the least squares fit method. *Aragon Compound 28 was statistically different from equivalent dose of OP-1038 (p≦0.01, calculated using Student's t-test). […]
Method for performing the alkaline phosphatase (AP) assay. […] Absorbance was read at 405 nm using a plate spectophotometer. […]

mouse uterus = experiment: Uterine wet weight in ovariectomized BALB/c mice; assay type: in vivo; conditions: for Uterine wet weight, agonist mode (without E2): q.d. three days, 100 mg/ml OP-1038 p.o. in 0.5% CMC; for Uterine wet weight, antagonist mode (+E2): three days, co-treated with 0.1 μg/ml E2 sc
Protocol: FIG. 9. […] Uterine wet weight was measured at the end of three days after treating ovariectomized BALB/c mice q.d. with vehicle or one of the following treatments (10 mice per group): 50 mg/kg tamoxifen p.o. in 0.5% carboxymethylcellulose (CMC); 50 mg/kg fulvestrant sc in 5% ethanol; […] OP-1038 p.o. in 0.5% CMC. Half the animals in each group were co-treated with 0.1 μg/ml E2 sc in cottonseed oil-ethanol (95:5), or vehicle alone. Animal experiments were conducted at the University of California, San Francisco following institutional animal care and use committee protocols.

[2] = test system: E2-stimulated estrogen response element (ERE)-regulated reporter gene activity; experiment: ERE-tk109-Luc reporter gene assay in MCF-7 cells; assay type: cell-based, human; conditions: 100 pM E2, 18-22 hours
Protocol: FIG. 10. […] A) OP-1074 had similar potency to model anti-estrogens in the ERE reporter gene assay. MCF-7 cells were transiently transfected with ERE-tk109-Luc and treated with anti-estrogens in hormone-depleted medium in the presence of 100 pM E2 for 22 hours. Results were from a single representative experiment and reported as the mean percent induction relative to E2 from triplicate treatments, with error bars representing SEM. […] Results were from a single representative experiment and reported as the mean percent induction relative to E2 from triplicate treatments, with error bars representing SEM. IC50's were calculated using the least squares fit method.
Compounds of invention are tested for their inhibitory activity of estrogen according to the assay methods described in Hodges-Gallagher, L., Valentine, C. V., El Bader, S. and Kushner, P. J. (2007) “Histone Deacetylase Inhibitors Enhance the Efficacy of Hormonal Therapy Agents on Breast Cancer Cells and Blocks Anti-estrogen-Driven Uterine Cell Proliferation” Breast Cancer Res Treat, November; 105(3):297-309. Specifically, an estrogen-responsive reporter gene (ERE-tk109-Luc) was transiently transfected into MCF-7 cells and treated with anti-estrogens in triplicate in the presence of 100 pM 17β-estradiol (E2) for 18-22 hours. Luciferase activity was normalized to activity of E2 alone and IC50's were calculated using the least squares fit method. This method is also described in legend for FIG. 10.

SMILES: CC1=C(c2ccc(O)cc2)C(c2ccc(OCCN3CC[C@@H](C)C3)cc2)Oc2cc(O)ccc21 (stereo partly drawn) [OP-1038, 3-(4-hydroxyphenyl)-4-methyl-2-(4-{2-[(3R)-3-methylpyrrolidin-1-yl]ethoxy}phenyl)-2H-chromen-7-ol]
- Inhibition of E2-stimulated AP activity [1]: more potent than Aragon Cpd. 28; also recorded: inhibit E2-stimulated AP activity; also recorded: more anti-estrogenic than EM-343 and EM-652
- Uterine wet weight, agonist mode (without E2) (mouse uterus): not significantly different from control or fulvestrant
- Uterine wet weight, antagonist mode (+E2) (mouse uterus): not different from fulvestrant
- Antagonism of E2-stimulated ERE-regulated reporter gene activity [2]: improved potency; also recorded: potent antagonists

SMILES: CC1=C(c2ccc(O)cc2)[C@H](c2ccc(OCCN3CC[C@@H](C)C3)cc2)Oc2cc(O)ccc21 [OP-1074, (2S)-3-(4-hydroxyphenyl)-4-methyl-2-(4-{2-[(3R)-3-methylpyrrolidin-1-yl]ethoxy}phenyl)-2H-chromen-7-ol]
- Inhibition of E2-stimulated AP activity [1]: inhibit E2-stimulated AP activity; also recorded: more anti-estrogenic than EM-343 and EM-652; also recorded: inhibited E2-stimulated AP activity in a dose dependent manner
- Uterine wet weight, agonist mode (without E2) (mouse uterus): essentially pure anti-estrogen
- Uterine wet weight, antagonist mode (+E2) (mouse uterus): complete anti-estrogen
- Antagonism of E2-stimulated ERE-regulated reporter gene activity [2]: improved potency; also recorded: potent antagonists
